Columns and labels:
NK1 = NK1 (Homo sapiens, UniProt P25103); assay: Neurokinin receptor NK1 binding; settings: [^125I]BH-SP, U-373MG cells (endogenous), read-out: CR6086 Activity at 10µM
[1] = Plasma protein binding (equilibrium dialysis, [^14C]CR6086); type: in vitro ADME; settings: rat, 0.2–200 μM, read-out: unbound fraction (fu)
Description: CR6086 concentrations in rat plasma were determined by high-performance liquid chromatography (Agilent 1200 series; Agilent Technologies, Santa Clara, CA, USA) coupled with a triple-quadrupole mass spectrometer (API 4000 QTRAP; SCIEX, Concord, ON, Canada). A ZORBAX SB-C18 2.0 × 50-mm, 3.5-μm column (Agilent Technologies) in isocratic conditions was used with mobile phase 0.1% formic acid in water/acetonitrile (68:32 vol/vol). The method was linear within the dynamic range 1.0–10,000 ng/ml (lower to upper limit of quantification). CR6086 plasma protein binding was determined in the 0.2–200 μM concentration range using [^14C]CR6086 and equilibrium dialysis. EP4 receptor occupancy (RO) was calculated on the basis of CR6086 concentrations according to the following formula: RO%=Cave/Cave+Ki×100,

M5 = M5 (Homo sapiens, UniProt P08912); assay: Muscarinic acetylcholine receptor M5 binding; settings: [^3H]4-DAMP, Human recombinant CHO cells, read-out: CR6086 Activity at 10µM
κ (KOP) = κ (KOP) (Homo sapiens, UniProt P41145); assay: Opioid receptor κ (KOP) binding; settings: [^3H]U 69593, Human recombinant CHO cells, read-out: CR6086 Activity at 10µM
CXCR2 (IL-8B) = CXCR2 (IL-8B) (Homo sapiens, UniProt P25025); assay: CXCR2 receptor binding; settings: [^125I]IL-8, Human recombinant HEK-293 cells, read-out: CR6086 Activity at 10µM
NOP (ORL1) = NOP (ORL1) (Homo sapiens, UniProt P41146); assay: Opioid receptor NOP (ORL1) binding; settings: [^3H]nociceptin, Human recombinant HEK-293 cells, read-out: CR6086 Activity at 10µM
[2] = system: Ca2+ channel (L, verapamil site); assay: Ion channel Ca2+ (L, verapamil site) binding; settings: up to 100µM (cell); [^3H]verapamil [^3H]D888; Rat cerebral cortex
α2 (non-selective) = assay: Adrenergic receptor α2 binding; settings: [^3H]RX 821002, Rat cerebral cortex
A1 = A1 (Homo sapiens, UniProt P30542); assay: Adenosine receptor A1 binding; settings: [^3H]DPCPX, Human recombinant CHO cells, read-out: CR6086 Activity at 10µM
µ (MOP) = µ (MOP) (Homo sapiens, UniProt P35372); assay: Opioid receptor µ (MOP) binding; settings: [^3H]DAMGO, Human recombinant HEK-293 cells, read-out: CR6086 Activity at 10µM
CCR1 = CCR1 (Homo sapiens, UniProt P32246); assay: CCR1 receptor binding; settings: [^125I]MIP-1α, Human recombinant HEK-293 cells, read-out: CR6086 Activity at 10µM
PAC1 (PACAP) = PAC1 (PACAP) (Homo sapiens, UniProt P41586); assay: PAC1 receptor binding; settings: [^125I]PACAP1-27, Human recombinant CHO cells, read-out: CR6086 Activity at 10µM
D5 = D5 (Homo sapiens, UniProt P21918); assay: Dopamine receptor D5 binding; settings: [^3H]SCH 23390, Human recombinant GH4 cells, read-out: CR6086 Activity at 10µM
[3] = system: arthritic mice (collagen-induced arthritis model); assay: Serum anti-bCII IgG antibodies (ELISA), CIA mice third study; type: in vivo, mouse; settings: 30 mg/kg CR6086, end of treatment
Description: In a third study, mice were randomised into the following treatment groups: naive, vehicle, 30 mg/kg CR6086, 1 or 3 mg/kg MTX, with the latter administered alone or in combination with 30 mg/kg CR6086. CR6086 was administered orally once daily. MTX was administered intraperitoneally three times per week (every third day). Mice were treated with test drugs for 16 days.
At the end of the treatment period, animals were killed, and their paws were explanted and processed for histology. In the third study, the serum concentrations of immunoglobulin G (IgG) antibodies against bCII were measured by ELISA (catalogue number 2032; Chondrex, Redmond, WA, USA).

NK3 = NK3 (Homo sapiens, UniProt P29371); assay: Neurokinin receptor NK3 binding; settings: [^3H]SR 142801, Human recombinant CHO cells, read-out: CR6086 Activity at 10µM
NK3, sequence (P29371 whole entry): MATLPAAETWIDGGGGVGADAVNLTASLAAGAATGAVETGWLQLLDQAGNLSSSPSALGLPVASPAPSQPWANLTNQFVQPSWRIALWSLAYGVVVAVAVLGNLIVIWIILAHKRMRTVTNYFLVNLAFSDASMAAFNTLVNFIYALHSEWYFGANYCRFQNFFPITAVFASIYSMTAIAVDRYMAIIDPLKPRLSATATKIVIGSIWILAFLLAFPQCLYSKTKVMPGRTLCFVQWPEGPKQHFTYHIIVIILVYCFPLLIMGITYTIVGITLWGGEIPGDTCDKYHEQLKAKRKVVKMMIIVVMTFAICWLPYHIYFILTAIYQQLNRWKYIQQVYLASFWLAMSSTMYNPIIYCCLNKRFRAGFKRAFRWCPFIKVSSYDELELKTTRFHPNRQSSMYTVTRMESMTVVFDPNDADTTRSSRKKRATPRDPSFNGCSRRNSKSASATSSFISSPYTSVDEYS

D5, sequence (P21918 whole entry): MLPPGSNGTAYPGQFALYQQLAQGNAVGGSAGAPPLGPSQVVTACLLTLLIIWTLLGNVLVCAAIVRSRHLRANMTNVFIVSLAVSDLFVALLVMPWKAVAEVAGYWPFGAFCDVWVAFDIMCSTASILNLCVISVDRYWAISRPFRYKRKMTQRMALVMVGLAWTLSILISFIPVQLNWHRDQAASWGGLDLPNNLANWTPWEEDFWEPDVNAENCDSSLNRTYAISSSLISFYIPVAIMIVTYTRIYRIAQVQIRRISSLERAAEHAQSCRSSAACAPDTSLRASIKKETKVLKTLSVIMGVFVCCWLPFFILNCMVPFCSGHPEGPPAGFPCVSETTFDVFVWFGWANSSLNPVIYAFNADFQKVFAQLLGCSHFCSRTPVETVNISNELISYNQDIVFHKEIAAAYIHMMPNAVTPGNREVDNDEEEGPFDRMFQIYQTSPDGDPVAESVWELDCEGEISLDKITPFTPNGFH
NK1, sequence (P25103 whole entry): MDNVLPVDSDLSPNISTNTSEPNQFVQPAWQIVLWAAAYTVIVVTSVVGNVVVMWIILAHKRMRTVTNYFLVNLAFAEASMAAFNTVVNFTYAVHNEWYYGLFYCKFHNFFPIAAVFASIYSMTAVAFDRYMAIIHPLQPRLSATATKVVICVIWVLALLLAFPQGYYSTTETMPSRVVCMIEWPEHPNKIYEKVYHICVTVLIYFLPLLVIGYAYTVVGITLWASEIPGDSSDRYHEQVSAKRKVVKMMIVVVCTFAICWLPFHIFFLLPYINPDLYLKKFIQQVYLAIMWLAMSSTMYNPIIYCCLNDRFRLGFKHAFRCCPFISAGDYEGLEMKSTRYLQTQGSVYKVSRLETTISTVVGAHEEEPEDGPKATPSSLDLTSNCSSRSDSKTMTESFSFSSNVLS
κ (KOP), sequence (P41145 whole entry): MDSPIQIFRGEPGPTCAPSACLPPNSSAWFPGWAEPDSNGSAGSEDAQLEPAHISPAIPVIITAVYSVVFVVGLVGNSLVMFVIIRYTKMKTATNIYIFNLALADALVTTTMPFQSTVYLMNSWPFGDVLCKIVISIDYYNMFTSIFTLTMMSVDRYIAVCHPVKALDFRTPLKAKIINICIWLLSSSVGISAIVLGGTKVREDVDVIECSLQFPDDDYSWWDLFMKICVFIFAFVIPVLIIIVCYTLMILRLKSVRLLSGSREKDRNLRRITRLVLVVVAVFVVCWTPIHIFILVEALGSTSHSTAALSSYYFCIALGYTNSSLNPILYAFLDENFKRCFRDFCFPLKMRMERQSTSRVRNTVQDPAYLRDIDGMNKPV
CCR1, sequence (P32246 whole entry): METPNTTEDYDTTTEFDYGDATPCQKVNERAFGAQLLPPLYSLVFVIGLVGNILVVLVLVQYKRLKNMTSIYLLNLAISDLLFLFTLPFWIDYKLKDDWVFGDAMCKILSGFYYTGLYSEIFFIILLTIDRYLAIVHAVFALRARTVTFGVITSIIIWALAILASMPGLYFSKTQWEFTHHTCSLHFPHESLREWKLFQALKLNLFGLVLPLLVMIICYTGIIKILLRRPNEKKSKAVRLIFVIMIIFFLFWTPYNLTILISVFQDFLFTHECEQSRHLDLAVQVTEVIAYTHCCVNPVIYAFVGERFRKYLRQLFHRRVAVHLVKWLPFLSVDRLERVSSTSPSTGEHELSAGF
µ (MOP), sequence (P35372 whole entry): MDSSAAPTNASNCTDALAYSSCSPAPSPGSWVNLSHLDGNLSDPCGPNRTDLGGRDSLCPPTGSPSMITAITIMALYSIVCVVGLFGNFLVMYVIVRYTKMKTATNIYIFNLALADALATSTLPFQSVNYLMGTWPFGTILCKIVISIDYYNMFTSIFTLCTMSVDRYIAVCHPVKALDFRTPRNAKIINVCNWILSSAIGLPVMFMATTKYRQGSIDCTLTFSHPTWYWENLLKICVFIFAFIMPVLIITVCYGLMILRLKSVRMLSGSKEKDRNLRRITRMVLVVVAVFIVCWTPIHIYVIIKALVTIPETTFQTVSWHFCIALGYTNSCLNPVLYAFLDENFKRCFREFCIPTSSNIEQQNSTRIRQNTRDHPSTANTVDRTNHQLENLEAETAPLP
M5, sequence (P08912 whole entry): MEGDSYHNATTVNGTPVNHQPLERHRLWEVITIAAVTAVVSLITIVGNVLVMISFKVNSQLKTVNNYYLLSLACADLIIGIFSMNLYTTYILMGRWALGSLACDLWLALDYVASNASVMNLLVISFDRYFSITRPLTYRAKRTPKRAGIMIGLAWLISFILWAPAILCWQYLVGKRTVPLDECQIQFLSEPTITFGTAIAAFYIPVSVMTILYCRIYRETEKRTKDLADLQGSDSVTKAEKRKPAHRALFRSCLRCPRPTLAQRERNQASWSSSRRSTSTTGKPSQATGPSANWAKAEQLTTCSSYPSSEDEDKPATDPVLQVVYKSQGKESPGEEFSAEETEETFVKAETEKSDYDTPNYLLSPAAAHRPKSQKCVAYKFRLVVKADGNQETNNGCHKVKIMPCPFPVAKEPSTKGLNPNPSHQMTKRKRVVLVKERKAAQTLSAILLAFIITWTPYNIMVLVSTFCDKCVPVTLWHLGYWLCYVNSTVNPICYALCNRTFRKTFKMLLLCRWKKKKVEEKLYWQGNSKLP
CXCR2 (IL-8B), sequence (P25025 whole entry): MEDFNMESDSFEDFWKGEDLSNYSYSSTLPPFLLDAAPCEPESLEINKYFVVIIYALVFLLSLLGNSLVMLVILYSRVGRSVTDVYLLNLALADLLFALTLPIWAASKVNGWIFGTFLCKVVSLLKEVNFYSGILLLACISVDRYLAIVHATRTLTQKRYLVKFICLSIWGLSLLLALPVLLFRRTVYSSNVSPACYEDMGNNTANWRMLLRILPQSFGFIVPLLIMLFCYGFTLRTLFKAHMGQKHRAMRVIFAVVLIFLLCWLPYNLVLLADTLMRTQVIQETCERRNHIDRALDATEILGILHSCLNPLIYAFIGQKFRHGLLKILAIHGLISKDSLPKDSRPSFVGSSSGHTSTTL
PAC1 (PACAP), sequence (P41586 21-468): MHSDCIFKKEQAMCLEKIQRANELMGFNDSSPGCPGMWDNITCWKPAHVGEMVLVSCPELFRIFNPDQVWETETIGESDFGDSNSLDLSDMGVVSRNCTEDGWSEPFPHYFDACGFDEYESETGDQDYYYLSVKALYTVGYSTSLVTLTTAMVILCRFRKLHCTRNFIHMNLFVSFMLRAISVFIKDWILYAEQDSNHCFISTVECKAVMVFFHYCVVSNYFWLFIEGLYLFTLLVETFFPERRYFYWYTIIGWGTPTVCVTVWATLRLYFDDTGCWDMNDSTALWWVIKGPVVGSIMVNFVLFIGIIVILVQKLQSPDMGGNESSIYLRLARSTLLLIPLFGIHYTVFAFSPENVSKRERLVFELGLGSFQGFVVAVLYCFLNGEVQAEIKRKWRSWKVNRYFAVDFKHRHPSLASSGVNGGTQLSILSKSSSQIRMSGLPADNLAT
A1, sequence (P30542 whole entry): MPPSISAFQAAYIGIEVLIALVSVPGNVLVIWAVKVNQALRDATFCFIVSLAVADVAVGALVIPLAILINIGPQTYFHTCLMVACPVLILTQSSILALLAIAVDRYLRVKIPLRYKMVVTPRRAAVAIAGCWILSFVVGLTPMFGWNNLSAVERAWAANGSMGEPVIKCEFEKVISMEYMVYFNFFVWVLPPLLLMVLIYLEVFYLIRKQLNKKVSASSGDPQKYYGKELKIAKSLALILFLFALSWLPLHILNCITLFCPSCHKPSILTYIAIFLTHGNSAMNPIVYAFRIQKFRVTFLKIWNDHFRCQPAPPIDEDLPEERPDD
NOP (ORL1), sequence (P41146 whole entry): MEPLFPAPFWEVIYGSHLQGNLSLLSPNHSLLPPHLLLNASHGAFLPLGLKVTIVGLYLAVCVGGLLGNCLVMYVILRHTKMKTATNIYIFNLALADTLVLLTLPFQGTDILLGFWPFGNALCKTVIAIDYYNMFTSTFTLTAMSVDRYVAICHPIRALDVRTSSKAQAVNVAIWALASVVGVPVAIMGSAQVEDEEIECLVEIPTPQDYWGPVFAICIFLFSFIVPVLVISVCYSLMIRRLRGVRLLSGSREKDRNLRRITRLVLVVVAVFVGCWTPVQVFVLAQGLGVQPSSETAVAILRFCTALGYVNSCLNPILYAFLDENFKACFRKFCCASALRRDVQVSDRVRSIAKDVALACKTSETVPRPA

O=C([O-])c1ccc(C2(NC(=O)[C@H]3CC4(CCN3Cc3ccc(C(F)(F)F)cc3)CC4)CC2)cc1.[Na+] [CR6086, Sodium (R)-4-(1-(6-(4-(trifluoromethyl)benzyl)-6-azaspiro[2.5]octane-5-carboxamido)cyclopropyl)benzoate]
inhibition at 10 µM (NK1): < 20% | fraction unbound [1]: 0.0484 | inhibition at 10 µM (M5): < 20% | inhibition at 10 µM (κ (KOP)): < 20% | inhibition at 10 µM (CXCR2 (IL-8B)): < 20% | inhibition at 10 µM (NOP (ORL1)): < 20% | CR6086 Activity at 10µM [2]: IN up to 100µM (IN = < 20% displacement or inhibition (all tables)) | CR6086 Activity at 10µM (α2 (non-selective)): IN (IN = < 20% displacement or inhibition (all tables)) | inhibition at 10 µM (A1): < 20% | inhibition at 10 µM (µ (MOP)): < 20% | inhibition at 10 µM (CCR1): < 20% | inhibition at 10 µM (PAC1 (PACAP)): < 20% | inhibition at 10 µM (D5): < 20% | Anti-collagen II [3]: 324.91 ± 79.82 µg/mL | inhibition at 10 µM (NK3): < 20%
